Laboratory results reported in patent US9938269B2, “Inhibitor compounds of phosphodiesterase type 10A” (ABBVIE INC., priority 2011, dated 2018).
Counter-ions that a name gives are not always drawn.

Biological target: T1, PDE10A (human) (Homo sapiens, UniProt Q9Y233)
T1 construct: purchased BPS Bioscience
Assay: Measurement of PDE activity (HTRF cAMP kit), human PDE10A
Assay type: biochemical
Details: PDE enzymatic reaction, substrate 20 nM for PDE10, 60 minutes at 29 C
Experimental: The recombinant PDE proteins are used in in vitro enzymatic reaction for measurement of PDE activity. These recombinant proteins, including PDE10A (human, rat and mouse PDE10) and isoforms of PDEs 1, 3, 4, and 5, were purchased from commercial vendor BPS Bioscience. The enzymatic activity of PDEs was determined by cAMP measurement kit from CisBio (IBA) using HTRF technology.
The PDE enzymatic reaction was carried out in assay buffer (20 mM Tris-HCl pH7.5, 10 mM MgCl2, 0.1% bovine serum albumin) containing enzyme and substrate. The PDE enzymes concentration ranged from 10 pM-250 pM, depending on each enzyme's specific activity. The substrate cyclic nucleotide (cAMP or cGMP) concentration used in the assay was 20 nM for PDE10, and 100 nM for other PDEs. The inhibitory effect of compound was determined by incubating various concentration of inhibitor in the enzymatic assay. Typically, compound was serial diluted in DMSO then further diluted in assay buffer. Next, the compound at varying concentration was mixed with PDE enzyme. The reaction was initiated by addition of cyclic nucleotide substrate, and incubated for 60 minutes at 29 C. The reaction was stopped by addition of lysis buffer from assay kit. The cAMP-d2 and anti-cAMP cryptate in the lysis buffer detected the level of cAMP left from the PDE hydrolysis reaction. The PDE activity is reversely correlated with the amount of cAMP left in the reaction and can be converted to the percent activity of an uninhibited control (100%). Thus, IC50 value of inhibitor can be obtained by plotting inhibitor concentration against PDE activity at that concentration.

T1 sequence (Q9Y233 whole entry): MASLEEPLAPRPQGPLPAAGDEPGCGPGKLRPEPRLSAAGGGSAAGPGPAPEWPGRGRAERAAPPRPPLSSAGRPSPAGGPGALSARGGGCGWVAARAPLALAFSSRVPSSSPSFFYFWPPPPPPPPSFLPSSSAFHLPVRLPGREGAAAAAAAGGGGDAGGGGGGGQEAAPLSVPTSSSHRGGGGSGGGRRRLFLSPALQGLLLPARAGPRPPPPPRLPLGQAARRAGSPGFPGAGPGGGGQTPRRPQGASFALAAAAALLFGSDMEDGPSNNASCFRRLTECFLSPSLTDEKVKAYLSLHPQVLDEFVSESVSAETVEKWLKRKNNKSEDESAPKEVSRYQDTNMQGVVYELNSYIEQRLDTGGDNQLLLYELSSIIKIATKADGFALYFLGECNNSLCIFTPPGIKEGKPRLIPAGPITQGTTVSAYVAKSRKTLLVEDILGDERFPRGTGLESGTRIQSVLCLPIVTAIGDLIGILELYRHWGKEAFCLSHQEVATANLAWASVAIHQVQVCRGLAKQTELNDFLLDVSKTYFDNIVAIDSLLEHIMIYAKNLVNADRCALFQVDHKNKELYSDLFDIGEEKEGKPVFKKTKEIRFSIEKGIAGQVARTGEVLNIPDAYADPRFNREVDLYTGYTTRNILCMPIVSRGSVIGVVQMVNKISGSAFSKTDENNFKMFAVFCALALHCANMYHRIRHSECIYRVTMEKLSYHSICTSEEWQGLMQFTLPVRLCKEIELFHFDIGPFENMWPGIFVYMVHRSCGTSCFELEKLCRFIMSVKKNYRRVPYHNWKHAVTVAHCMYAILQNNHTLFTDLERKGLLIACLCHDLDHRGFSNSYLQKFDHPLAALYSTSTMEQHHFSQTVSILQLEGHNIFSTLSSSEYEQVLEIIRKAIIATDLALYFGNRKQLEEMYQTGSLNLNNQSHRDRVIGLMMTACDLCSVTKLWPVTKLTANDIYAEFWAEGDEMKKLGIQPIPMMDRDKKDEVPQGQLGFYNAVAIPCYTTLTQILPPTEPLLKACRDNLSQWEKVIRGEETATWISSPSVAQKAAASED

Compound	IC50
COc1cnccc1-c1cccc2c1C(=O)N(CCc1ccc3ccccc3n1)C2 [Example 169, 7-(3-Methoxy-pyridin-4-yl)-2-(2-quinolin-2-yl-ethyl)-2,3-dihydro-isoindol-1-one trifluoroacetate]	100 to 200 nM
O=C1c2c(cccc2-c2ccncc2Cl)CN1CCc1ccc2ccccc2n1 [Example 170, 7-(3-Chloro-pyridin-4-yl)-2-(2-quinolin-2-yl-ethyl)-2,3-dihydro-isoindol-1-one trifluoroacetate]	< 100 nM
O=C1c2c(cccc2-c2ccnc(Cl)c2)CN1CCc1ccc2ccccc2n1 [Example 171, 7-(2-Chloro-pyridin-4-yl)-2-(2-quinolin-2-yl-ethyl)-2,3-dihydro-isoindol-1-one trifluoroacetate]	100 to 200 nM
O=C1c2c(cccc2-c2ccncc2F)CN1CCc1ccc2ccccc2n1 [Example 173, 7-(3-Fluoro-pyridin-4-yl)-2-(2-quinolin-2-yl-ethyl)-2,3-dihydro-isoindol-1-one]	< 100 nM
O=C1c2cccc(-c3ccncc3)c2CN1CCc1ccc2ccccc2n1 [Example 181, 4-Pyridin-4-yl-2-(2-quinolin-2-yl-ethyl)-2,3-dihydro-isoindol-1-one]	< 100 nM
COc1cc(-c2cccc3c2C(=O)N(CCc2ccc4ccccc4n2)C3)ccn1 [Example 182, 7-(2-Methoxy-pyridin-4-yl)-2-(2-quinolin-2-yl-ethyl)-2,3-dihydro-isoindol-1-one trifluoroacetate]	200 to 500 nM
COc1ccc(-c2ccc(OC)c3c2C(=O)N(CCc2ccc4ccccc4n2)C3)cc1 [Example 186, 4-Methoxy-7-(4-methoxy-phenyl)-2-(2-quinolin-2-yl-ethyl)-2,3-dihydro-isoindol-1-one]	100 to 200 nM
COc1ccc(-c2ccc(F)cc2)c2c1CN(CCc1ccc3ccccc3n1)C2=O [Example 187, 7-(4-Fluoro-phenyl)-4-methoxy-2-(2-quinolin-2-yl-ethyl)-2,3-dihydro-isoindol-1-one]	< 100 nM
O=C1c2cccc(-c3cccnc3)c2CN1CCc1ccc2ccccc2n1 [Example 201, 4-Pyridin-3-yl-2-(2-quinolin-2-yl-ethyl)-2,3-dihydro-isoindol-1-one]	< 100 nM
COc1ccc(-c2cccc3c2CN(CCc2ccc4ccccc4n2)C3=O)cc1 [Example 203, 4-(4-Methoxy-phenyl)-2-(2-quinolin-2-yl-ethyl)-2,3-dihydro-isoindol-1-one trifluoroacetate]	< 100 nM
COCCCOc1ccc(-c2ccncc2)c2c1CN(CCc1ccc3ccccc3n1)C2=O [Example 204, 4-(3-Methoxy-propoxy)-7-pyridin-4-yl-2-(2-quinolin-2-yl-ethyl)-2,3-dihydro-isoindol-1-one]	< 100 nM
CC(C)Oc1ccc(-c2ccncc2)c2c1CN(CCc1ccc3ccccc3n1)C2=O [Example 205, 4-Isopropoxy-7-pyridin-4-yl-2-(2-quinolin-2-yl-ethyl)-2,3-dihydro-isoindol-1-one]	< 100 nM
O=C1c2cccc(-c3cncnc3)c2CN1CCc1ccc2ccccc2n1 [Example 208, 4-Pyrimidin-5-yl-2-(2-quinolin-2-yl-ethyl)-2,3-dihydro-isoindol-1-one]	< 100 nM
Cn1c(CCN2Cc3cccc(-c4ccc(F)cc4)c3C2=O)nc2ccccc21 [Example 211, 7-(4-Fluoro-phenyl)-2-[2-(1-methyl-1H-benzoimidazol-2-yl)-ethyl]-2,3-dihydro-isoindol-1-one trifluoroacetate]	200 to 500 nM
O=C1c2cccc(-c3ccc(F)cc3)c2CN1CCc1ccc2ccccc2n1 [Example 212, 4-(4-Fluoro-phenyl)-2-(2-quinolin-2-yl-ethyl)-2,3-dihydro-isoindol-1-one trifluoroacetate]	200 to 500 nM
Cn1c(CCN2Cc3cccc(-c4ccncc4)c3C2=O)nc2cc(F)ccc21 [Example 221, 2-[2-(5-Fluoro-1-methyl-1H-benzoimidazol-2-yl)-ethyl]-7-pyridin-4-yl-2,3-dihydro-isoindol-1-one trifluoroacetate]	< 100 nM
CCn1c(CCN2Cc3cccc(-c4ccncc4)c3C2=O)nc2ccccc21 [Example 222, 2-[2-(1-Ethyl-1H-benzoimidazol-2-yl)-ethyl]-7-pyridin-4-yl-2,3-dihydro-isoindol-1-one trifluoroacetate]	< 100 nM
O=C1c2cccc(-c3cn[nH]c3)c2CN1CCc1ccc2ccccc2n1 [Example 225, 4-(1H-Pyrazol-4-yl)-2-(2-quinolin-2-yl-ethyl)-2,3-dihydro-isoindol-1-one]	< 100 nM
O=C1c2c(cccc2-c2ccc3cn[nH]c3c2)CN1CCc1cn2ccccc2n1 [Example 243, 2-(2-Imidazo[1,2-a]pyridin-2-yl-ethyl)-7-(1H-indazol-6-yl)-2,3-dihydro-isoindol-1-one]	< 100 nM
O=C1c2cccc(OCc3ccncc3)c2C(=O)N1CCc1ccc2ccccc2n1 [Example 247, 4-(Pyridin-4-ylmethoxy)-2-(2-quinolin-2-yl-ethyl)-isoindole-1,3-dione]	< 100 nM
O=C1c2c(N3CCC(F)(F)CC3)ccnc2CN1CCc1ccc2ccccc2n1 [Example 258, 4-(4,4-Difluoro-piperidin-1-yl)-6-(2-quinolin-2-yl-ethyl)-6,7-dihydro-pyrrolo[3,4-b]pyridin-5-one]	< 100 nM
O=C1c2c(N3CC4COCC4C3)ccnc2CN1CCc1ccc2ccccc2n1 (centres unmarked) [Example 260, 6-(2-Quinolin-2-yl-ethyl)-4-(tetrahydro-furo[3,4-c]pyrrol-5-yl)-6,7-dihydro-pyrrolo[3,4-b]pyridin-5-one]	< 100 nM
O=C1c2c(C3=COCC3)ccnc2CN1CCc1ccc2ccccc2n1 [Example 266, 4-(4,5-Dihydro-furan-3-yl)-6-(2-quinolin-2-yl-ethyl)-6,7-dihydro-pyrrolo[3,4-b]pyridin-5-one]	< 100 nM
CSCOc1ccc(-c2ccncc2)c2c1CN(CCc1ccc3ccccc3n1)C2=O [Example 267, 4-Methylsulfanylmethoxy-7-pyridin-4-yl-2-(2-quinolin-2-yl-ethyl)-2,3-dihydro-isoindol-1-one]	< 100 nM
O=C1c2c(-c3ccncc3)ccc(OC(F)F)c2CN1CCc1ccc2ccccc2n1 [Example 268, 4-Difluoromethoxy-7-pyridin-4-yl-2-(2-quinolin-2-yl-ethyl)-2,3-dihydro-isoindol-1-one]	< 100 nM
O=C1c2cccc(-c3cccnc3)c2C(=O)N1CCc1ccc2ccccc2n1 [Example 271, 4-Pyridin-3-yl-2-(2-quinolin-2-yl-ethyl)-isoindole-1,3-dione]	< 100 nM
CNCOc1ccc(-c2ccncc2)c2c1CN(CCc1ccc3ccccc3n1)C2=O [Example 276, 4-Methylaminomethoxy-7-pyridin-4-yl-2-(2-quinolin-2-yl-ethyl)-2,3-dihydro-isoindol-1-one]	< 100 nM
O=C1c2c(cccc2N2CCCC3NCCCC32)CN1CCc1ccc2ccccc2n1 (centres unmarked) [Example 279, 7-(Octahydro-[1,5]naphthyridin-1-yl)-2-(2-quinolin-2-yl-ethyl)-2,3-dihydro-isoindol-1-one trifluoroacetate]	200 to 500 nM
N#Cc1ccc(-c2cccc3c2C(=O)N(CCc2ccc4ccccc4n2)C3)s1 [Example 281, 5-[3-oxo-2-(2-quinolin-2-yl-ethyl)-2,3-dihydro-1H-isoindol-4-yl]-thiophene-2-carbonitrile]	< 100 nM
